From patent US9814714B2, “Kinase modulation, and indications therefor” (Plexxikon Inc., priority 2015, dated 2017)
Like-named read-outs stand apart in the source and are kept apart here.

What was measured:
[1] = test system: pERK in B9 cells (HRAS^Q61L); experiment: Phospho-ERK AlphaScreen assay, pERK activation in B9; type: cell-based, murine; conditions: Mus musculus
Protocol: (§1) Phospho-ERK AlphaScreen® assay: The degree of ERK phosphorylation was determined using an AlphaScreen® assay where an increase in ERK1/2 phosphorylation at Thr202/Tyr204 brought the donor and acceptor AlphaScreen® beads into close proximity, generating a signal for quantification. To determine the effects of compound treatment on phosphorylation of ERK1/2, cells were plated in a 96-well plate and treated with an 8-point titration of compound for one hour at 37° C. before lysis. To detect pERK, cell lysates were incubated with streptavidin-coated AlphaScreen® donor beads, anti-mouse IgG AlphaScreen® acceptor beads, a biotinylated anti-ERK1/2 rabbit antibody, and a mouse antibody that recognizes ERK1/2 only when it is phosphorylated on Thr202 and Tyr204. The biotinylated ERK1/2 antibody binds to both the streptavidin-coated AlphaScreen® donor beads and to ERK1/2 (regardless of its phosphorylation state), and the phospho-ERK1/2 antibody binds to the acceptor beads and to ERK1/2 that is phosphorylated at Thr202/Tyr204. An increase in ERK1/2 phosphorylation at Thr202/Tyr204 brings the donor and acceptor AlphaScreen® beads into close proximity, generating a signal that can be quantified on an EnVision reader (Perkin Elmer).
(§2) Using AlphaScreen® technology, the ability of Formula I to affect the phosphorylation of ERK and MEK in the cells was measured quantitatively. Following treatment with compound, the cells were lysed, and a sample of the lysate was transferred to an assay plate. The lysate was mixed with antibodies directed against total ERK/MEK, antibodies that recognize specific phosphorylation sites on ERK/MEK, AlphaScreen® anti-mouse IgG Acceptor beads, and Streptavidin Donor beads. Upon excitation of the donor beads with laser light at 680 nm, singlet oxygen was produced. This singlet oxygen was rapidly quenched, unless the AlphaScreen® Acceptor beads were in close proximity, in which case a proximity signal can be measured at 580 nm. In the presence of phosphorylated ERK/MEK, there is a very strong proximity signal.
(§3) 1. One day before the assay, 50,000 cells were plated in each well of a 96-well tissue-culture-treated plate (Corning #3610) in a 50 μL volume. Cells were incubated at 37° C. overnight.
(§4) 2. Compounds were diluted in DMSO to 500× final concentration. Each compound was plated as an 8-point titration, using 1:3 dilutions in DMSO. The maximum concentration was about 5 mM.
(§5) 3. 1 μl of compound was added to each well of a 96-well polypropylene plate (Corning #3363). For A375, COLO829, SK-MEL-3, HCT116, and HT-29, the high control was DMSO, and the low control was 10 μM PLX4720 (CAS No. 918505-84-7). For B9 and IPC-298, the high control was 3.33 μM PLX4720, and the low control was DMSO. 4. 249 μL growth media was added to compounds, diluting them 250-fold. 5. […] The compound was incubated with the cells at 37° C. for one hour. 6. The media was aspirated, and the cells were lysed in 50 μL of ice-cold 1× Cell Lysis buffer. The plates were incubated on ice for 5 minutes to allow complete lysis of the cells. 7. A mixture of biotinylated donor antibody, acceptor antibody, and anti-mouse IgG AlphaScreen® acceptor beads in 1× AlphaLISA immunoassay buffer was prepared. 8. 5 μL of lysate was transferred to a 384-well assay plate (Perkin Elmer #6005359). 5 μL of the antibody and acceptor bead mixture was added. The plates were spinned.

[2] = test system: pMEK in HCT116 cells (KRAS-G13D); experiment: Phospho-MEK AlphaScreen assay, pMEK activation in HCT116; type: cell-based; conditions: Homo sapiens, HCT-116
Protocol: as §2, with “signal. BRAF-V600 inhibitors affect a decrease in this proximity signal in cells expressing BRAF-V600E (e.g. A375) through a decrease in phosphorylation of the BRAF effectors ERK and MEK.” for “signal.”
as §3, §4
3. […]

[3] = test system: pMEK in IPC-298 cells (NRAS-Q61L); experiment: Phospho-MEK AlphaScreen assay, pMEK activation in IPC-298; type: cell-based; conditions: Homo sapiens
Protocol: as §2, with “signal. BRAF-V600 inhibitors affect a decrease in this proximity signal in cells expressing BRAF-V600E (e.g. A375) through a decrease in phosphorylation of the BRAF effectors ERK and MEK.” for “signal.”
as §3, §4
3. […]

[4] = test system: phospho-ERK1/2 (T202/Y204, pERK) in RAS mutant and BRAF^V600E cell lines; experiment: pERK screen in cell line panel: ERK pathway inhibition index (EPII); type: cell-based; conditions: for pERK activation in RAS mutant cell lines (in words): at the concentrations tested; for ERK pathway inhibition index (EPII): ratio between mean pERK activation EC50 (B9, IPC-298, HCT116) and mean pERK inhibition IC50 (A375, COLO829)
Protocol: as §1

[5] = test system: pERK in COLO829 cells (BRAF^V600E, heterozygous); experiment: Phospho-ERK AlphaScreen assay, pERK inhibition in COLO829; type: cell-based; conditions: Homo sapiens, COLO-829, 1 h, read-out: pERK inhibition IC50 COLO829
Protocol: as §1, §2, §3, §4, §5

[6] = test system: pERK in HCT116 cells (KRAS^G13D); experiment: Phospho-ERK AlphaScreen assay, pERK activation in HCT116; type: cell-based; conditions: Homo sapiens, HCT-116
Protocol: as §1, §2, §3, §4, §5

[7] = test system: pMEK in B9 cells (HRAS-Q61L); experiment: Phospho-MEK AlphaScreen assay, pMEK activation in B9; type: cell-based, murine; conditions: Mus musculus
Protocol: as §2, with “signal. BRAF-V600 inhibitors affect a decrease in this proximity signal in cells expressing BRAF-V600E (e.g. A375) through a decrease in phosphorylation of the BRAF effectors ERK and MEK.” for “signal.”
as §3, §4
3. […]

[8] = B9, HRAS^Q61L, concentration increasing pERK to 50% compared to positive control 10 μM PLX4720, read-out: pERK activation EC50 B9
[9] = read-out: pERK activation Mean EC50, B9
[10] = HCT116, KRAS^G13D, concentration increasing pERK to 50% compared to positive control 10 μM PLX4720, read-out: pERK activation EC50 HCT116
[11] = read-out: pERK activation Mean EC50, HCT116
[12] = COLO829, BRAF^V600E heterozygous, one hour treatment

EC50 [1, 8] [nM] | EC50 [6, 10] [nM] | IC50 [5, 12] [nM] | Structure (SMILES) | EC50 [1, 9] [nM] | EC50 [2] [nM] | EC50 [3] [nM] | pERK activation in RAS mutant cell lines (in words) [4] | ERK pathway inhibition index (EPII) [4] | IC50 [5] [nM] | EC50 [6, 11] [nM] | EC50 [7] [nM]
> 200000 | > 200000 | 2.1 | CCN(C)S(=O)(=O)Nc1ccc(F)c(C(=O)c2c[nH]c3ncc(-c4cnc(C5CC5)nc4)cc23)c1F [Formula II, 5-(2-cyclopropylpyrimidin-5-yl)-3-[3-[[ethyl(methyl)sulfamoyl]amino]-2,6-difluoro-benzoyl]-1H-pyrrolo[2,3-b]pyridine] |  |  |  | essentially no pERK activation | >50,000 |  |  | 
360 | 340 | 41 | CCCS(=O)(=O)Nc1ccc(F)c(C(=O)c2c[nH]c3ncc(-c4ccc(Cl)cc4)cc23)c1F [Vemurafenib, vemurafenib, reference compound] | 560 | 769 | 1010 |  |  |  | 286 | 588

Structure (SMILES) | EC50 [1, 8] [nM] | EC50 [6, 10] [nM] | IC50 [5, 12] [nM] | EC50 [1, 9] [nM] | EC50 [2] [nM] | EC50 [3] [nM] | pERK activation in RAS mutant cell lines (in words) [4] | ERK pathway inhibition index (EPII) [4] | IC50 [5] [nM] | EC50 [6, 11] [nM] | EC50 [7] [nM]
O=C(c1c(F)ccc(NS(=O)(=O)N2CC[C@@H](F)C2)c1F)c1c[nH]c2ncc(-c3cnc(C4CC4)nc3)cc12 [Formula I, (3R)—N-[3-[5-(2-cyclopropylpyrimidin-5-yl)-1H-pyrrolo[2,3-b]pyridine-3-carbonyl]-2,4-difluorophenyl]-3-fluoropyrrolidine-1-sulfonamide] | > 200000 | > 200000 |  | ≥ 10000 | 10000 | 10000 | essentially no pERK activation | >10,000 | 18 | 10000 | 10000
